The test system of data set [1] is Mus musculus. The experiment in a line: Toxicity in Mus musculus albino (mouse) assessed as drop in temperature at extremeties at 90 to 340 mg/kg, ip. Conditions: in vivo. The class given is organism-based. Further details: dose 90-340 mg/kg, route intraperitoneal.
Data set [2] has as its system Mus musculus. The experiment in a line: Anti-inflammatory activity in Mus musculus albino (mouse) assessed as inhibition of formalin-induced paw swelling at 30 mg/kg, po administered 30 min prior formalin challenge measured after 90 min post challenge (reference value: 9.5 +/- 0.04 mm/min). In kind it is functional.
Data set [3] concerns Mus musculus. In words: Toxicity in Mus musculus albino (mouse) assessed as serum gamma-glutamyl transferase level at 300 mg/kg, po for 10 days (reference value: 4.43 +/- 0.31 U/l). In kind it is organism-based. Further details: dose 300 mg/kg, route oral. To be noted: in vivo, 240 h.
Data set [4] has as its system Mus musculus. In words: Anti-inflammatory activity in Mus musculus albino (mouse) assessed as inhibition of formalin-induced paw swelling at 30 mg/kg, po administered 30 min prior formalin challenge measured after 120 min post challenge (reference value: 9.83 +/- 0.071 mm/min). The class given is functional.
Data set [5] concerns Mus musculus. In words: Toxicity in ip dosed Mus musculus albino (mouse) assessed as mortality measured per gram body weight. The class given is organism-based. To be noted: in vivo.
Data set [6] has as its system Mus musculus. In words: Toxicity in Mus musculus albino (mouse) assessed as GPx activity per gram of Hb at 300 mg/kg, po for 10 days (Rvb =179.16 +/- 10.45 U/g Hb). Further details: dose 300 mg/kg, route oral. In kind it is organism-based. Conditions: in vivo, 240 h.
For data set [7], the system named is Mus musculus. The experiment in a line: Toxicity in Mus musculus albino (mouse) assessed as rapid respiration at 90 to 340 mg/kg, ip. The class given is organism-based. Also noted: dose 90-340 mg/kg, route intraperitoneal. Conditions: in vivo.
Data set [8] deals with Mus musculus. In words: Toxicity in Mus musculus albino (mouse) assessed as increase in heart rate at 90 to 340 mg/kg, ip. To be noted: in vivo. In kind it is organism-based. Also noted: dose 90-340 mg/kg, route intraperitoneal.
Data set [9] concerns Mus musculus. The experiment in a line: Toxicity in Mus musculus albino (mouse) assessed as general depression at 90 to 340 mg/kg, ip. In kind it is organism-based. Also noted: dose 90-340 mg/kg, route intraperitoneal. To be noted: in vivo.
In data set [10] the test system is Mus musculus. The experiment in a line: Toxicity in Mus musculus albino (mouse) assessed as serum LDH level at 300 mg/kg, po for 10 days (reference value: 217.84 +/- 13.36 U/l). In kind it is organism-based. Further details: dose 300 mg/kg, route oral. To be noted: in vivo, 240 h.
In data set [11] the test system is Mus musculus. In words: Toxicity in Mus musculus albino (mouse) assessed as serum ALP level at 300 mg/kg, po for 10 days (reference value: 31.63 +/- 3.73 U/l). The class given is organism-based. Further details: dose 300 mg/kg, route oral. Conditions: in vivo, 240 h.
Data set [12] concerns Mus musculus. In words: Anti-inflammatory activity in Mus musculus albino (mouse) assessed as inhibition of formalin-induced paw swelling at 30 mg/kg, po administered 30 min prior formalin challenge measured after 60 min post challenge (reference value: 9.73 +/- 0.06 mm/min). In kind it is functional.
Data set [13] deals with Mus musculus. The experiment in a line: Toxicity in Mus musculus albino (mouse) assessed as GSH activity at 300 mg/kg, po for 10 days (reference value: 59.57 +/- 5.10 %). In kind it is organism-based. To be noted: in vivo, 240 h. Further details: dose 300 mg/kg, route oral.
In data set [14] the test system is Mus musculus. In words: Toxicity in Mus musculus albino (mouse) assessed as serum TBARS level at 300 mg/kg, po for 10 days (reference value: 4.35 +/- 0.86 U/l). The class given is organism-based. To be noted: in vivo, 240 h. Further details: dose 300 mg/kg, route oral.
The test system of data set [15] is Mus musculus. The experiment in a line: Toxicity in Mus musculus albino (mouse) assessed as serum SGOT level at 300 mg/kg, po for 10 days (reference value: 9.74 +/- 1.73 U/l). The class given is organism-based. Also noted: dose 300 mg/kg, route oral. Conditions: in vivo, 240 h.
Data set [16] has as its system Mus musculus. In words: Toxicity in Mus musculus albino (mouse) assessed as SOD activity per gram of Hb at 300 mg/kg, po for 10 days (reference value: 12.7+/- 2.08 U/g Hb). The class given is organism-based. Further details: dose 300 mg/kg, route oral. Conditions: in vivo, 240 h.
The subject of data set [17] is Mus musculus. In words: Toxicity in Mus musculus albino (mouse) assessed as bluish toe at 90 to 340 mg/kg, ip. The class given is organism-based. Further details: dose 90-340 mg/kg, route intraperitoneal. Conditions: in vivo.
Data set [18] relates to Mus musculus. In words: Anti-inflammatory activity in Mus musculus albino (mouse) assessed as inhibition of formalin-induced paw swelling at 30 mg/kg, po administered 30 min prior formalin challenge measured after 30 min post challenge (reference value: 9.46 +/- 0.035 mm/min). The class given is functional.
Data set [19] concerns Mus musculus. In words: Toxicity in Mus musculus albino (mouse) assessed as serum SGPT level at 300 mg/kg, po for 10 days (reference value: 35.82 +/- 5.26 U/l). The class given is organism-based. Also noted: dose 300 mg/kg, route oral. Conditions: in vivo, 240 h.
The test system of data set [20] is Mus musculus. The experiment in a line: Toxicity in Mus musculus albino (mouse) assessed as brownish eye mucus at 90 to 340 mg/kg, ip. The class given is organism-based. Also noted: dose 90-340 mg/kg, route intraperitoneal. To be noted: in vivo.
The subject of data set [21] is Mus musculus. In words: Toxicity in Mus musculus albino (mouse) assessed as bluish skin at 90 to 340 mg/kg, ip. The class given is organism-based. Further details: dose 90-340 mg/kg, route intraperitoneal. To be noted: in vivo.
For data set [22], the system named is Mus musculus. In words: Toxicity in Mus musculus albino (mouse) assessed as tremor inhind limbs at 90 to 340 mg/kg, ip. In kind it is organism-based, Limb. Also noted: dose 90-340 mg/kg, route intraperitoneal. Conditions: in vivo.
The test system of data set [23] is Mus musculus. In words: Toxicity in Mus musculus albino (mouse) assessed as general depression at 70 to 410 mg/kg, ip. Further details: dose 70-410 mg/kg, route intraperitoneal. The class given is organism-based. Conditions: in vivo.
In data set [24] the test system is Mus musculus. The experiment in a line: Toxicity in Mus musculus albino (mouse) assessed as bluish skin at 70 to 410 mg/kg, ip. Further details: dose 70-410 mg/kg, route intraperitoneal. Conditions: in vivo. In kind it is organism-based.
The test system of data set [25] is Mus musculus. The experiment in a line: Toxicity in Mus musculus albino (mouse) assessed as drop in temperature at extremeties at 80 to 375 mg/kg, ip. To be noted: in vivo. In kind it is organism-based. Further details: dose 80-375 mg/kg, route intraperitoneal.
The subject of data set [26] is Mus musculus. The experiment in a line: Toxicity in Mus musculus albino (mouse) assessed as rapid respiration at 70 to 410 mg/kg, ip. The class given is organism-based. Also noted: dose 70-410 mg/kg, route intraperitoneal. To be noted: in vivo.
For data set [27], the system named is Mus musculus. In words: Toxicity in Mus musculus albino (mouse) assessed as brownish eye mucus at 70 to 410 mg/kg, ip. The class given is organism-based. Also noted: dose 70-410 mg/kg, route intraperitoneal. To be noted: in vivo.
Data set [28] deals with Mus musculus. In words: Toxicity in Mus musculus albino (mouse) assessed as tremor inhind limbs at 70 to 410 mg/kg, ip. To be noted: in vivo. In kind it is organism-based, Limb. Also noted: dose 70-410 mg/kg, route intraperitoneal.
Data set [29] concerns Mus musculus. The experiment in a line: Toxicity in Mus musculus albino (mouse) assessed as bluish toe at 70 to 410 mg/kg, ip. In kind it is organism-based. Also noted: dose 70-410 mg/kg, route intraperitoneal. Conditions: in vivo.
Data set [30] deals with Mus musculus. In words: Toxicity in Mus musculus albino (mouse) assessed as drop in temperature at extremeties at 70 to 410 mg/kg, ip. In kind it is organism-based. Also noted: dose 70-410 mg/kg, route intraperitoneal. To be noted: in vivo.
Data set [31] concerns Mus musculus. The experiment in a line: Toxicity in Mus musculus albino (mouse) assessed as increase in heart rate at 70 to 410 mg/kg, ip. Conditions: in vivo. Also noted: dose 70-410 mg/kg, route intraperitoneal. In kind it is organism-based.

As for `CCOC(=O)c1nn2c(=O)c3ccccc3nc2n1-c1ccc(S(=O)(=O)NC(C)=O)cc1`, the Activity entry in the data set on Mus musculus [1] is “Toxic”; in the data set on Mus musculus [2], 6 millimeter/min; in the data set with Mus musculus [3] it was 4.51 U/L; in the data set on Mus musculus [4], 5.95 millimeter/min; in the data set on Mus musculus [5], 235 millimeter/min; in the data set with Mus musculus [6] it was 177 U/g Hb. Besides, the Activity entry in the data set with Mus musculus [7] is listed as “Toxic”; in the data set on Mus musculus [8], “Toxic”; in the data set on Mus musculus [9], “Toxic”; with Mus musculus [10] it was 215.78 U/L; in the data set on Mus musculus [11], 28.95 U/L; with Mus musculus [12], 6.17 millimeter/min. Moreover, the Activity in the data set with Mus musculus [13] is 58.63%; in the data set on Mus musculus [14], 4.02 nmol/mL; in the data set with Mus musculus [15], 10.66 U/L; in the data set on Mus musculus [16] it was 14 U/g Hb; with Mus musculus [17], “Toxic”; in the data set on Mus musculus [18] it was 6.37 millimeter/min. The Activity in the data set on Mus musculus [19] is 31.24 U/L; in the data set on Mus musculus [20] it was “Toxic”; with Mus musculus [21] it was “Toxic”; with Mus musculus [22], “Toxic”.
For the compound `CC(=O)NS(=O)(=O)c1ccc(-n2c(-c3ccccc3O)nn3c(=O)c4ccccc4nc23)cc1`, the Activity result was “Toxic” in the data set on Mus musculus [23]; “Toxic” with Mus musculus [24]; “Toxic” with Mus musculus [25]; 6.83 millimeter/min in the data set on Mus musculus [2]; 4.36 U/L in the data set with Mus musculus [3]; 6.02 millimeter/min with Mus musculus [4]. In addition, the Activity in the data set with Mus musculus [5] is 213.25 millimeter/min; in the data set on Mus musculus [6], 180 U/g Hb; in the data set with Mus musculus [26], “Toxic”; with Mus musculus [10] it was 211.27 U/L; with Mus musculus [27] it was “Toxic”; in the data set on Mus musculus [11], 33.26 U/L. Also, the Activity result with Mus musculus [28] was “Toxic”; in the data set with Mus musculus [12], 6.11 millimeter/min; in the data set with Mus musculus [13] it was 60.12%; with Mus musculus [14] it was 4.11 nmol/mL; with Mus musculus [15] it was 11.1 U/L; with Mus musculus [16] it was 12.4 U/g Hb. Moreover, the Activity entry is given as “Toxic” in the data set with Mus musculus [29]; “Toxic” in the data set on Mus musculus [30]; “Toxic” in the data set with Mus musculus [31]; 6.43 millimeter/min with Mus musculus [18]; 28.44 U/L with Mus musculus [19].

Values taken from ChEMBL document CHEMBL3045512, “Synthesis of some novel triazoloquinazolines and triazinoquinazolines and their evaluation for anti-inflammatory activity” (Med Chem Res, 2012).
